From US9682955B2, “Quinazoline derivatives useful as CB-1 inverse agonists” (Janssen Pharmaceutica NV, priority 2014, dated 2017)
Read-outs that look alike come from different tables or passages of the source.

Tests used:
[1] = target: Human CB1R (Cannabanoid receptor 1) (Homo sapiens (Human), UniProt P21554); test: CB-1 in vitro cAMP assay (HTRF); assay type: cell-based; conditions: mean where tested more than once
How it was run: (§1)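 HEK-293 cells stably transfected with the human receptor, plated overnight at 4E5 cells/mL. Compounds given as 1/3 serial dilutions from 10 mM DMSO stocks. Stimulation in HBSS/5 mM HEPES/0.1% BSA with 0.5 mM IBMX and forskolin (1.5 μM in buffer); cAMP measured by competitive HTRF immunoassay (d2-cAMP, cryptate anti-cAMP) against a cAMP standard curve.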

[2] = target: Human CB2R (Cannabanoid receptor 2) (Homo sapiens (Human), UniProt P34972); test: CB-2 in vitro cAMP assay (HTRF); assay type: cell-based; conditions: mean where tested more than once
How it was run: as §1

[3] = Mouse Fast PK/BBB (plasma and brain concentration); assay type: in vivo, Male C57bl/6j mice; conditions: for BRAIN Mean Conc. ± Std. Dev: N=3; for concentration at 1 h / concentration at 4 h: male, C57bl/6j
Protocol: Male Sprague Dawley rats were ordered from Charles River (225-250 gm upon arrival). They were fed standard chow diet (Purina 5001) and housed 2 per cage. Male C57bl/6j mice were ordered from Charles River at 22-25 g and housed 3 per cage. They were fed standard chow (Purina 5001). All animals were housed in a temperature-controlled room with 12-hour light/dark cycle. Animals were given food and water ad libitum, except as noted.
[…] Test compounds were administered by oral gavage (5 ml kg^−1).
Male C57bl/6j mice were dosed with test compounds at 30 mg/kg. Plasma was collected via retro-orbital bleeding at 1 hr and 4 hrs after dosing. Whole brain without cerebellum was collected at 4 hrs after dosing. Wet brain weight was recorded before freezing. Brains were homogenized in saline and sent for analysis for determination of concentration of test compound.
Tables 6A and 6B below present results for representative compounds of the present invention, tested according to the procedure as described above. Each compound was tested in three animals (N=3) and administered PO at 20 mg/kg or 30 mg/kg.

hCB1-CHO-K1 membranes = hCB1-CHO-K1 membranes (Homo sapiens (Human), UniProt P21554); test: CB-1 membrane binding assay ([3H] CP 55,940 displacement); conditions: [3H] CP 55,940 0.4 nM
Protocol: Into Greiner V bottom polypropylene plates, hCB1-CHO-K1 membranes (2 μg/well final concentration) in assay buffer (50 mM Tris-HCl pH 7.4, 5 mM MgCl2 and 0.5 mg/ml (0.05%) Ultra fatty acid free BSA) were dispensed. Membranes were purchased from Perkin Elmer. Test compounds were then added to each well and then [^3H] CP 55, 940 (0.4 nM final well concentration) in assay buffer (50 mM Tris-HCl pH 7.4, 5 mM MgCl2 and 0.5 mg/ml (0.05%) Ultra fatty acid free BSA) was added. Samples were mixed and incubated for 90 min at 30° C. in the Greiner V Bottom Polypropylene plate. After incubation, assay reagents were transferred to a blocked 384 well polypropylene filter plates. The binding reaction was stopped by filtration and washed seven times with ice cold rinse buffer. Filter plates were then dried overnight at room temperature. The next day, plate bottoms were sealed with plate tape and 15 μl MicroScint 20 was added to each well. Plates were incubated for 2h and radioactivity was measured by Topcount.
Total Binding levels were achieved by combining membrane, DMSO, and [^3H] CP-55,940 (also known as 5-(1,1-dimethylheptyl)-2-[(1R,2R,5R)-5-hydroxy-2-(3-hydroxypropyl)cyclohexyl]-phenol). […]
IC50 data was calculated using raw CPM values. […] IC50 values were fit appropriately and calculated using the following equation: […]

Human CB1R (Cannabanoid receptor 1), sequence (P21554 whole entry): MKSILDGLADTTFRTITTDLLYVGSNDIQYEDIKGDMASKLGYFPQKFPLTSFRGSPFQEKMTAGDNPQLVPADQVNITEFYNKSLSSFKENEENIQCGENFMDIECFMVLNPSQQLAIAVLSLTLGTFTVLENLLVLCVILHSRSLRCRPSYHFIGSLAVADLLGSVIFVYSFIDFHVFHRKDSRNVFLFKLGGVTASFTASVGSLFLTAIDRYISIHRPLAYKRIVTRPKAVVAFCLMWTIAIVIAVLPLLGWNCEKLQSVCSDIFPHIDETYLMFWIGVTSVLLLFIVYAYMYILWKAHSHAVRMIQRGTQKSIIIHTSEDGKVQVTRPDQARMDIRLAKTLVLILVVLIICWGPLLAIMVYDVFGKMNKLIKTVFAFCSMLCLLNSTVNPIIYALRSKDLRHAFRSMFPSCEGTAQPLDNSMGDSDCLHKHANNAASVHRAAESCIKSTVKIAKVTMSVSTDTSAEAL
Human CB2R (Cannabanoid receptor 2), sequence (P34972 whole entry): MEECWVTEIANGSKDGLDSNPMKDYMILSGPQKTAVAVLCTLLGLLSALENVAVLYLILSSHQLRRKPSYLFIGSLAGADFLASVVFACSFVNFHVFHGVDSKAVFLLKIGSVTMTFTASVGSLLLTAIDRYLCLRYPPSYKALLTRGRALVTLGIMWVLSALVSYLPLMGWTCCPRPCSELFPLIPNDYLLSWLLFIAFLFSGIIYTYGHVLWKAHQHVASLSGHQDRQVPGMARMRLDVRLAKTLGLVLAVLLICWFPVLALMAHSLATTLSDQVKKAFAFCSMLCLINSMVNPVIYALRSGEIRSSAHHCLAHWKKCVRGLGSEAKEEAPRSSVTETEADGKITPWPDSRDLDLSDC
hCB1-CHO-K1 membranes, sequence (P21554 whole entry): as the sequence (P21554 whole entry) above

EC50 [1] | EC50 [2] | BRAIN Mean Conc. ± Std. Dev ([3]; PO 30 mg/kg, 1 hr) | BRAIN Mean Conc. ± Std. Dev ([3]; PO 30 mg/kg, 4 hr) | concentration at 1 h ([3]; plasma, PO 30 mg/kg, 1 hr, N=3, read-out: PLASMA Mean Conc. ± Std. Dev) | concentration at 4 h ([3]; plasma, PO 30 mg/kg, 4 hr, N=3, read-out: PLASMA Mean Conc. ± Std. Dev) | concentration at 1 h ([3]; brain, PO 20 mg/kg, 1 hr, N=3, read-out: BRAIN Mean Conc. ± Std. Dev) | concentration at 4 h ([3]; brain, PO 20 mg/kg, 4 hr, N=3, read-out: BRAIN Mean Conc. ± Std. Dev) | concentration at 1 h ([3]; plasma, PO 20 mg/kg, 1 hr, N=3, read-out: PLASMA Mean Conc. ± Std. Dev) | concentration at 4 h ([3]; plasma, PO 20 mg/kg, 4 hr, N=3, read-out: PLASMA Mean Conc. ± Std. Dev) | IC50 (hCB1-CHO-K1 membranes) | SMILES
0.021 µM | 4.46 µM | BLOQ ± NA | BLOQ ± NA | 946 ± 99.4 ng/mL | 1300 ± 155 ng/mL |  |  |  |  |  | OCC(CO)(CO)COc1nc(NCc2cccc(C(F)(F)F)c2)c2cc(C(c3ccc(Cl)cc3)c3ccc(Cl)cc3)ccc2n1 [Compound #54, 2-(((6-(bis(4-chlorophenyl)methyl)-4-((3-(trifluoromethyl)benzyl)amino)quinazolin-2-yl)oxy)methyl)-2-(hydroxymethyl)propane-1,3-diol]
0.011 µM | > 10 µM |  |  |  |  | 61.7 ± 22.6 ng/mL | 192 ± 14 ng/mL | 3300 ± 537 ng/mL | 3790 ± 743 ng/mL |  | FC(F)(F)c1ccc(CNc2ncnc3ccc(C(c4ccc(Cl)cc4)c4ccc(Cl)cc4)cc23)cc1 [compound 138, 6-(bis(4-chlorophenyl)methyl)-N-(4-(trifluoromethyl)benzyl)quinazolin-4-amine]
0.024 µM | 2.45 µM |  |  |  |  |  |  |  |  | 0.074 µM | CS(=O)(=O)N1CCC(Nc2ncnc3ccc(C(c4ccc(Cl)cc4)c4ccc(Cl)cc4)cc23)CC1 [Compound #140, 6-(bis(4-chlorophenyl)methyl)-N-(1-(methylsulfonyl)piperidin-4-yl) quinazolin-4-amine]
